Where no end group is shown, it is not given here.

Data set [1] concerns normal human mammary epithelial cells (MCF-12F). Briefly: in vitro. In kind it is cell-based. The following applies: each tumor cell line (CAKI2, PC-3, A2058, H2444, A549) versus MCF-12F; result in words. How it is done: (§1) CAKI2 cells were cultured and adjusted to cell count of about 5×10^3 cells per single well of 96-well plate. The amount of medium at this time was made to be 100 μL per well. Next, the 96-well plate was arranged in a CO2 incubator and incubated for about 1 day (21 hours to 24 hours) under conditions of 37° C. and 5% CO2. Subsequently, peptide-containing test media were respectively prepared for each concentration so that the concentration of each sample peptide targeted for evaluation was 12.5 μM and 25 μM followed by supplying to the wells in which the cells targeted for evaluation were cultured (namely, the wells following the above-mentioned incubation) so that the amount of media was 90 μL per well. The 96-well plate was then returned to CO2 incubator followed by incubating for 48 hours under conditions of 37° C. and 5% CO2. The number of wells (n) at each concentration in each peptide addition test group was set to 3. Thus, the values of the results indicated in the following table are the average values of the results respectively obtained for 3 test wells. Cell viability (%) was determined in the manner described below. […] Following completion of incubation, cell viability (%) was evaluated using a colorimetric method consisting of recovering the cell culture liquid containing the above-mentioned reagent together with measuring absorbance at wavelength of 450 nm based on reduction of tetrazolium salt (value corrected for absorbance at a wavelength of 650 nm: A450 to A650). More specifically, the cell viability (%) of each test cell line was calculated from the measured absorbance as a relative value based on cell viability of 100% for the measured value (measured absorbance) of the comparison test group that underwent incubation for 48 hours as described above in only medium not containing peptide. Antitumor activity was evaluated for Sample 2 in above-mentioned Test Example 1 targeted at multiple types of human-derived cultured tumor cells. […]

A further data set can be described thus: in vitro. The data set is classed as cell-based, human. The following applies: human. How it is done:
as §1

On to “FIGNLALSDLLAGVAYTANLLLKKRTLRKNDRKKR-NH2 [Sample 2]”, for which the “antitumor activity against tumor cells in comparison with normal cells” value in data set [1] was “more potent antitumor activity”. Also, in the data set “in vitro”, the viability at 48 h, 12.5 μM stood at 59.6% and the viability at 48 h, 25 μM amounted to 13.8%.

By viability is commonly meant the share of living cells, or the viability signal relative to a control. Higher therefore signals better survival.

These data come from patent US11339203B2, “Antitumor peptide and use thereof” (TOAGOSEI CO., LTD., priority 2018, dated 2022).
